In patent US9303017B2, “2,5-disubstituted-pyridyl nicotinic ligands, and methods of use thereof” (Georgetown University, priority 2011, dated 2016):
Like-named read-outs stand apart in the source and are kept apart here.

Columns and labels:
α2β2 nAChR = α2β2 nAChR (Rattus norvegicus (Rat), UniProt P12389+P12390); assay: [3H]-epibatidine competition binding, α2β2; conditions: Table 1; mean of 3 to 5 measurements
Procedure: (§1) In Vitro Binding Affinities for nAChR Subtypes. […] To determine selectivities of these compounds in binding assays among the three predominant nAChR subtypes, α3β4, α4β2 and α7, the ratios of Ki values (α3β4/α4β2 and α7/α4β2) were determined.
(§2) Cell Lines and Cell Culture. The cell lines expressing defined rat nAChR subtypes were established previously by stably transfecting HEK 293 cells with rat nAChR subunit genes. The cell line expressing human α4β2 nAChRs, YXα4β2H1, was established recently. These cell lines were maintained in minimum essential medium (MEM) supplemented with 10% fetal bovine serum, 100 units/mL penicillin G, […] and selective antibiotics at 37° C. with 5% CO2 in a humidified incubator. Fetal bovine serum was provided by Gemini Bio-Products (Woodland, Calif.). […]
(§3) Briefly, cultured cells at >80% confluence were removed from their flasks (80 cm^2) with a disposable cell scraper and placed in 10 mL of 50 mM Tris.HCl buffer (pH 7.4, 4° C.). […] The filter-retained radioactivity was measured by liquid scintillation counting. […] Data from competition binding assays were analyzed using Prism 5 (GraphPad Software, San Diego, Calif.).
(§4) Pharmacological Properties. We measured the in vitro binding affinities of the ligands for defined receptor subtypes (α2β2, α2β4, α3β2, α3β4, α4β2, α4β4, α6β2, α6β4, and α7) expressed in stably transfected cell lines. […]

α2β4 nAChR = α2β4 nAChR (Rattus norvegicus (Rat), UniProt P12389+P12392); assay: [3H]-epibatidine competition binding, α2β4; conditions: Table 1; mean of 3 to 5 measurements
Procedure: as §1, §2, §3, §4

α3β2 nAChR = α3β2 nAChR (Rattus norvegicus (Rat), UniProt P04757+P12390); assay: [3H]-epibatidine competition binding, α3β2; conditions: Table 1; mean of 3 to 5 measurements
Procedure: as §1, §2, §3, §4

α3β4 nAChR = α3β4 nAChR (Rattus norvegicus (Rat), UniProt P04757+P12392); assay: [3H]-epibatidine competition binding, α3β4
Procedure: as §1
(§5) Cell Lines and Cell Culture. The cell lines expressing defined rat nAChR subtypes were established previously by stably transfecting HEK 293 cells with rat nAChR subunit genes. The cell line expressing human α4β2 nAChRs, YXα4β2H1, was established recently. These cell lines were maintained in minimum essential medium (MEM) supplemented with 10% fetal bovine serum, 100 units/mL penicillin G, […] and selective antibiotics at 37° C. with 5% CO2 in a humidified incubator. Fetal bovine serum was provided by Gemini Bio-Products (Woodland, Calif.). Tissue culture medium and antibiotics were obtained from Invitrogen Corporation (Carlsbad, Calif.), unless otherwise stated.
(§6) Briefly, cultured cells at >80% confluence were removed from their flasks (80 cm^2) with a disposable cell scraper and placed in 10 mL of 50 mM Tris.HCl buffer (pH 7.4, 4° C.). The cell suspension was centrifuged at 10,000×g for 5 min and the pellet was collected. The cell pellet was then homogenized in 10 mL buffer with a polytron homogenizer and centrifuged at 36,000 g for 10 min at 4° C. The membrane pellet was resuspended in fresh buffer, and aliquots of the membrane preparation were used for binding assays. […] Bound and free ligands were separated by vacuum filtration through Whatman GF/C filters treated with 0.5% polyethylenimine. The filter-retained radioactivity was measured by liquid scintillation counting. Specific binding was defined as the difference between total binding and nonspecific binding. Data from competition binding assays were analyzed using Prism 5 (GraphPad Software, San Diego, Calif.).
(§7) Pharmacological Properties. We measured the in vitro binding affinities of the ligands for defined receptor subtypes (α2β2, α2β4, α3β2, α3β4, α4β2, α4β4, α6β2, α6β4, and α7) expressed in stably transfected cell lines. […] Rat forebrain homogenates were included to allow comparison between the heterologous and native α4β2 and α7 nAChRs. See Table 1 for binding affinity values (Ki) of the ligands at the three major nAChR subtypes (α3β4. α4β2 and α7).

α4β2 nAChR = α4β2 nAChR (Rattus norvegicus (Rat), UniProt P09483+P12390); assay: biochemical; format: binding; conditions: for Ki: read-out: Ki α4β2
Procedure: as §1, §5, §6, §7

α4β4 nAChR = α4β4 nAChR (Rattus norvegicus (Rat), UniProt P09483+P12392); assay: [3H]-epibatidine competition binding, α4β4; conditions: Table 1; mean of 3 to 5 measurements
Procedure: as §1, §2, §3, §4

α7 nAChR = α7 nAChR (Rattus norvegicus (Rat), UniProt Q05941); format: binding
Procedure: as §1, §5, §6, §7

human α4β2 nAChRs = human α4β2 nAChRs (Homo sapiens (Human), UniProt P17787+P43681); assay: 86Rb+ efflux assay (activation and desensitization), α4β2; format: cell-based; conditions: for IC50: desensitization
Procedure: (§8) In Vitro Effects on nAChR Function. […] Their agonist activities were assessed by measuring stimulated ^86Rb^+ efflux from stably transfected cells, either expressing human α4β2 nAChRs or rat α3β4 receptors.
as §5
(§9) ^86Rb^+ Efflux Assay. Functional properties of compounds at nAChRs expressed in the transfected cells were measured using ^86Rb^+ efflux assays as described previously. In brief, cells expressing human α4β2 or rat α3β4 nAChRs were plated into 24-well plates coated with poly-D-lysine. The plated cells were grown at 37° C. for 18 to 24 hour to reach 85-95% confluence. The cells were then incubated in growth medium (0.5 mL/well) containing ^86Rb^+ (2 μCi/mL) for 4 hour at 37° C. The loading mixture was then aspirated, and the cells were washed four times with 1 mL buffer (15 mM HEPES, 140 mM NaCl, 2 mM KCl, 1 mM MgSO4, 1.8 mM CaCl2, 11 mM Glucose, pH 7.4). One mL of buffer with or without compounds to be tested was then added to each well. After incubation for 2 min, the assay buffer was collected for measurements of ^86Rb^+ released from the cells. Cells were then lysed by adding 1 mL of 100 mM NaOH to each well, and the lysate was collected for determination of the amount of ^86Rb^+ that was in the cells at the end of the efflux assay. Radioactivity of assay samples and lysates was measured by liquid scintillation counting. Total loading (cpm) was calculated as the sum of the assay sample and the lysate of each well. The amount of ^86Rb^+ efflux was expressed as a percentage of ^86Rb^+ loaded. […] For obtaining EC50 and Emax values, stimulation curves were constructed in which 8 different concentrations of a ligand were included in the assay. […] EC50, Emax and IC50(10′) values were determined by nonlinear least-squares regression analyses (GraphPad, San Diego, Calif.).
(§10) The functional properties of the ligands were determined by ^86Rb^+ efflux assays in cells expressing α3β4 and α4β2 nAChR subtypes. The functional activity of each ligand was measured for its agonism, antagonism and desensitization ability. Agonist activity for each of the ligands was tested at eight different concentrations. […] The full concentration-effect curves generated potency (EC50) and efficacy (Emax) of each ligand. […] We tested each ligand for antagonist activity at eight concentrations. The potency (IC50(0′)) of each ligand as an antagonist was derived from the full concentration-effect curves.

rat α3β4 nAChRs = rat α3β4 nAChRs (Rattus norvegicus (Rat), UniProt P04757+P12392); assay: 86Rb+ efflux assay (activation and desensitization), α3β4; format: cell-based
Procedure: as §8, §5, §9, §10

[1] = Table 1, mean of 3 to 5 measurements

For `Cc1ncc(C#CCCCCCl)cc1OC[C@@H]1CCN1` [(S)-21, (S)-3-(azetidin-2-ylmethoxy)-5-(6-chlorohex-1-ynyl)-2-methylpyridine], the Ki (α2β2 nAChR) was 0.0086 µM, the Ki (α2β4 nAChR) was 29 µM and the Ki (α3β2 nAChR) was 0.3 µM. For the same molecule, the Ki (α3β4 nAChR; [1]) was 92 µM, the Ki (α3β4 nAChR; Table 3 (Example 4)) was 86 µM and the Ki (α4β2 nAChR; [1]) was 0.0053 µM. For the same molecule, the Ki (α4β2 nAChR; Table 3 (Example 4)) was 0.0047 µM, the “Ki Ratio α3β4/α4β2” value (α4β2 nAChR; selectivity for α4β2 over α3β4) was 17,000 and the “Ki Ratio α7/α4β2” value (α4β2 nAChR; selectivity for α4β2 over α7) was 13,000. The Ki (α4β4 nAChR) was 3.7 µM, the Ki (α7 nAChR; [1]) was 67 µM and the Ki (α7 nAChR; Table 3 (Example 4)) was 67.2 µM. The “Emax α4β2 nAChRs” value (human α4β2 nAChRs; agonist efficacy normalized to Emax of nicotine, ND = no significant stimulated efflux detected) was “didn't show detectable agonist activity”, the IC50 (human α4β2 nAChRs; 10 min pre-treatment, Table 3 (Example 4), read-out: IC50(10′) α4β2) was 0.27 µM and the IC50 (human α4β2 nAChRs; 10 min pre-incubation before 100 μM nicotine, Table 2, read-out: IC50(10′) α4β2 nAChRs) was 0.26 µM. It also gave an IC50 (rat α3β4 nAChRs; read-out: IC50(10′) α3β4) of 11 µM and an IC50 (rat α3β4 nAChRs; read-out: IC50(10′) α3β4 nAChRs) greater than 10 µM.
